# Experimental data published in PMC5794853 (Scientific Reports, 2018).
# T1: BsRelQ (Bacillus subtilis, UniProt O31611)
# T1 construct: gene yjbM; RelQ / SAS1, homotetramer
# T1 sequence (O31611 1-211): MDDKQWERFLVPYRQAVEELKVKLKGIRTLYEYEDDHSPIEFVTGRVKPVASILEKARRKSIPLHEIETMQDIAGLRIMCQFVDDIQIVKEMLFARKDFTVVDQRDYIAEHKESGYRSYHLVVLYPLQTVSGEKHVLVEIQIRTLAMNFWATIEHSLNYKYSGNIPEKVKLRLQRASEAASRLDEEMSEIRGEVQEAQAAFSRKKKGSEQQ
# B1: RelP from Bacillus subtilis (BsRelP) (enzyme, Bacillus subtilis PY79)
# chain: MDLSVTHMDDLKTVMEDWKNELLVYKFALDALDTKFSIISQEYNLIHGHNPIEHTKSRVKSFESIVNKLMRKGCEITTKEMKEHIHDIAGVRIICSFISDIYNVVNVLKQHEDLRIVKVKDYIQTPKPNGYRSLHLIIEMPVNLTNRVEYVKAEIQIRTIAMDFWASLEHKIYYKLNNDVPKQLTDELKEAAEIAHYLDEKMLGIKKEVD
# notes: RelP (SAS2, YwaC), small (p)ppGpp synthetase of Bacillus subtilis PY79, gene ywaC, amplified from genomic DNA; The strep-tag was encoded by the forward primer; cloned into pET24d(+) at NcoI/XhoI; No tag cleavage is described; also called SAS2; YwaC; source: E. coli BL21 (DE3), purified (StrepTrap, SEC)
# Experiments:
# SaRelP = target: T2, SaRelP (Staphylococcus aureus, UniProt W8U368); assay: X-ray crystal structure; type: binding; conditions: active site (ATP site), Mg2+, 5 mM AMPCPP, non-hydrolysable ATP analogue
# T2 construct: gene ywaC; full length, N-terminal hexahistidine tag, pET24d(+), expressed in E. coli BL21(DE3), homotetramer
# BsRelQ [1] = target: T3, BsRelQ (Bacillus subtilis, UniProt O31611, E113A); assay: stimulation of ppGpp synthesis, HPLC; type: biochemical; conditions: allosteric activator, 200 µM; 5 mM ATP, 0.25 mM GDP/GTP, pH 7.5, 37 °C
# T3 construct: gene yjbM; RelQ / SAS1, homotetramer
# T3 sequence (O31611 whole entry E113A): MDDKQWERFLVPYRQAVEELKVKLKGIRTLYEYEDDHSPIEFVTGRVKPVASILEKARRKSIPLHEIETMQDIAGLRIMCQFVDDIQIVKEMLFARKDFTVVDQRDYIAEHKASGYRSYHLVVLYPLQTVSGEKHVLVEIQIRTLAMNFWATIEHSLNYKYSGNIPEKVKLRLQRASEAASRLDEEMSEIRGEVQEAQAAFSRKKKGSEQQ
# BsRelQ [2] = target: T4, BsRelQ (Bacillus subtilis, UniProt O31611, H111A); assay: stimulation of ppGpp synthesis, HPLC; type: biochemical; conditions: allosteric activator, 200 µM; 5 mM ATP, 0.25 mM GDP/GTP, pH 7.5, 37 °C
# T4 construct: gene yjbM; RelQ / SAS1, homotetramer
# T4 sequence (O31611 whole entry H111A): as the sequence (O31611 whole entry E113A) above, with H111A, A113E counted along it
# BsRelQ [3] = target: T5, BsRelQ (Bacillus subtilis, UniProt O31611, E178A); assay: stimulation of ppGpp synthesis, HPLC; type: biochemical; conditions: allosteric activator, 200 µM; 5 mM ATP, 0.25 mM GDP/GTP, pH 7.5, 37 °C
# T5 construct: gene yjbM; RelQ / SAS1, homotetramer
# T5 sequence (O31611 whole entry E178A): as the sequence (O31611 whole entry E113A) above, with A113E, E178A counted along it
# BsRelQ [4] = target: T1, BsRelQ; assay: stimulation of ppGpp synthesis, HPLC; type: biochemical; conditions: allosteric activator, 0-250 µM; 5 mM ATP, pH 7.5, 20 mM MgCl2
# BsRelQ [5] = target: T6, BsRelQ (Bacillus subtilis, UniProt O31611, Q174A); assay: stimulation of ppGpp synthesis, HPLC; type: biochemical; conditions: allosteric activator, 200 µM; 5 mM ATP, 0.25 mM GDP/GTP, pH 7.5, 37 °C
# T6 construct: gene yjbM; RelQ / SAS1, homotetramer
# T6 sequence (O31611 whole entry Q174A): as the sequence (O31611 whole entry E113A) above, with A113E, Q174A counted along it
# [6] = target: RelP from Staphylococcus aureus (SaRelP) (Staphylococcus aureus strain Newman); assay: crystal structure; apo SaRelP, 15 mg/ml, sitting drop at room temperature, 0.1 M CHES pH 9.5, 40% (v/v) PEG600; 2.25 Å; homotetramer
# [7] = target: the molecule itself; assay: crystal structure; apo BsRelP, 10 mg/ml, sitting drop at room temperature, 0.1 M CHES pH 9.5, 30% (w/v) PEG 3000; 3.3 Å; homotetramer
molecule,measurement,setting,value
Nc1ncnc2c1ncn2[C@@H]1O[C@H](COP(=O)(O)CP(=O)(O)OP(=O)(O)O)[C@@H](O)[C@H]1O [AMPCPP],X-ray crystal structure,SaRelP,solve the structure of SaRelP in presence of AMPCPP
Nc1nc2c(ncn2[C@@H]2O[C@H](COP(=O)(O)OP(=O)(O)OP(=O)(O)O)[C@@H](OP(=O)(O)OP(=O)(O)O)[C@H]2O)c(=O)[nH]1 [pppGpp],"stimulation of ppGpp synthesis, HPLC",BsRelQ [1],Variation of His111 and Glu113 does not affect stimulation of BsRelQ
same,"stimulation of ppGpp synthesis, HPLC",BsRelQ [2],Variation of His111 and Glu113 does not affect stimulation of BsRelQ
same,"stimulation of ppGpp synthesis, HPLC",BsRelQ [3],upon replacement of Gln174 and Glu178 the pppGpp-stimulatory effect is decreased
same,"stimulation of ppGpp synthesis, HPLC",BsRelQ [4],determining the (p)ppGpp synthesis BsRelQ in presence of different concentrations of pppGpp
same,"stimulation of ppGpp synthesis, HPLC",BsRelQ [5],upon replacement of Gln174 and Glu178 the pppGpp-stimulatory effect is decreased
RelP from Staphylococcus aureus (SaRelP) (enzyme),stoichiometry N,[6],4
B1,stoichiometry N,[7],4
